Laboratory results reported in patent EP1680415B1, “PYRROLIDINYL UREA DERIVATIVES AS ANGIOGENESIS INHIBITORS” (ABBOTT LABORATORIES, priority 2003, dated 2005).

Test system: HMVEC
Assay: human microvascular endothelial (HMVEC) migration assay
Format: cell-based
Settings: Homo sapiens, Inhibition of HMVEC migration, activators 15 ng/mL bFGF/VEGF, 4 hours at 37 °C, compared to a positive control; for inhibition at 0.0001 µM: 0.1 nM; for inhibition at 0.001 µM: 1 nM
Description: The human microvascular endothelial (HMVEC) migration assay was run according to the procedure of S. S. Tolsma, O. V. Volpert, D. J. Good, W. F. Frazier, P. J. Polverini and N. Bouck, J. Cell Biol. 122, 497-511 (1993).
The HMVEC migration assay was carried out using Human Microvascular Endothelial Cells-Dermal (single donor) and Human Microvascular Endothelial Cells, (neonatal). The BCE or HMVEC cells were starved overnight in DME containing 0.01% bovine serum albumin (BSA). Cells were then harvested with trypsin and resuspended in DME with 0.01 % BSA at a concentration of 1.5 X 10^6 cells per mL. Cells were added to the bottom of a 48 well modified Boyden chamber (Nucleopore Corporation, Cabin John, MD). The chamber was assembled and inverted, and cells were allowed to attach for 2 hours at 37 °C to polycarbonate chemotaxis membranes (5 µm pore size) that had been soaked in 0.01 % gelatin overnight and dried. The chamber was then reinverted, and test substances (total volume of 50 µL), including activators, 15 ng/mL bFGF/VEGF, were added to the wells of the upper chamber. The apparatus was incubated for 4 hours at 37 °C. Membranes were recovered, fixed and stained (Diff Quick, Fisher Scientific) and the number of cells that had migrated to the upper chamber per 3 high power fields counted. Background migration to DME + […] was subtracted and the data reported as the number of cells migrated per 10 high power fields (400X) or, when results from multiple experiments were combined, as the percent inhibition of migration compared to a positive control.

| SMILES | inhibition at 0.0001 µM | further results |
| --- | --- | --- |
| Cc1ccc(C(=O)N2CC[C@@H](NC(=O)N3CCC(O)CC3)C2)cn1 [Example 85, 4-hydroxy-N-{(3R)-1-[(6-methylpyridin-3-yl)carbonyl]pyrrolidin-3-yl}piperidine-1-carboxamide] | 55% | – |
| Cc1ccc(C(=O)N2CC[C@@H](NC(=O)NCC(C)(C)C)C2)cn1 [Example 9, N-{(3R)-1-[(6-methyl-3-pyridinyl)carbonyl]-3-pyrrolidinyl}-N'-neopentylurea] | 71% | – |
| Cc1ccc(C(=O)N2CC[C@@H](NC(=O)N3CCN(c4ccc([N+](=O)[O-])cc4)CC3)C2)cn1 [Example 96, N-{(3R)-1-[(6-methylpyridin-3-yl)carbonyl]pyrrolidin-3-yl}-4-(4-nitrophenyl)piperazine-1-carboxamide] | 75% | – |
| Cc1ccc(C(=O)N2CCC(NC(=O)N(C)CC(O)c3ccccc3)C2)cn1 (stereo not drawn) [Example 83, N-(2-hydroxy-2-phenylethyl)-N-methyl-N'-{1-[(6-methylpyridin-3-yl)carbonyl]pyrrolidin-3-yl}urea] | 80% | – |
| Cc1ccc(C(=O)N2CC[C@@H](NC(=O)NCc3ccc(F)cc3F)C2)cn1 [Example 30, N-(2,4-difluorobenzyl)-N'-{(3R)-1-[(6-methyl-3-pyridinyl)carbonyl]-3-pyrrolidinyl}urea] | 64% | – |
| Cc1ccc(C(=O)N2CC[C@@H](NC(=O)NCCC(C)(C)C)C2)cn1 [Example 10, N-(3,3-dimethylbutyl)-N'-{(3R)-1-[(6-methyl-3-pyridinyl)carbonyl]-3-pyrrolidinyl}urea] | 65% | – |
| COCC1CCCN(C(=O)N[C@@H]2CCN(C(=O)c3ccc(C)nc3)C2)C1 (stereo partly drawn) [Example 97, 3-(methoxymethyl)-N-{(3R)-1-[(6-methylpyridin-3-yl)carbonyl]pyrrolidin-3-yl}piperidine-1-carboxamide] | – | inhibition at 10 pM (0.01 nM): 54% |
| Cc1ccc(C(=O)N2CC[C@@H](NC(=O)N3CCC(n4c(=O)[nH]c5ccccc54)CC3)C2)c(Cl)n1 [Example 47, N-{(3R)-1-[(2-chloro-6-methylpyridin-3-yl)carbonyl]pyrrolidin-3-yl}-4-(2-oxo-2,3-dihydro-1H-benzimidazol-1-yl)piperidine-1-carboxanude] | – | inhibition at 0.001 µM: 80% |
| CSCCCNC(=O)N[C@@H]1CCN(C(=O)c2ccc(C)nc2Cl)C1 [Example 41, N-{(3R)-1-[(2-chloro-6-methylpyridin-3-yl)carbonyl]pyrrolidin-3-yl}-N'-[3-(methylthio)propyl]urea] | 87% | – |
| Cc1ccc(C(=O)N2CC[C@@H](NC(=O)NCC(F)(F)F)C2)cn1 [Example 11, N-{(3R)-1-[(6-methyl-3-pyridinyl)carbonyl]-3-pyrrolidinyl}-N'-(2,2,2-trifluoroethyl)urea] | 81% | – |
| Cc1ccc(C(=O)N2CC[C@@H](NC(=O)N(C)CCc3ccccn3)C2)cn1 [Example 84, N-methyl-N'-{(3R)-1-[(6-methylpyridin-3-yl)carbonyl]pyrrolidin-3-yl}-N-(2-pyridin-2-ylethyl)urea] | 62% | – |
| Cc1ccc(C(=O)N2CC[C@@H](NC(=O)N3CC4(C)CC3CC(C)(C)C4)C2)cn1 (stereo partly drawn) [Example 74, 1,3,3-trimethyl-N-{(3R)-1-[(6-methylpyridin-3-yl)carbonyl]pyrrolidin-3-yl}-6-azabicyclo[3.2.1]octane-6-carboxamide] | 68% | – |
| C#CCN(C)C(=O)N[C@@H]1CCN(C(=O)c2ccc(C)nc2)C1 [Example 62, N-methyl-N'-{(3R)-1-[(6-methylpyridin-3-yl)carbonyl]pyrrolidin-3-yl}-N-prop-2-ynylurea] | 54% | – |
| Cc1ccc(C(=O)N2CC[C@@H](NC(=O)N3CCN(C4CCCCC4)CC3)C2)cn1 [Example 78, 4-cyclohexyl-N-{(3R)-1-[(6-methylpyridin-3-yl)carbonyl]pyrrolidin-3-yl}piperazine-1-carboxamide] | 67% | – |
| Cc1ccc(C(=O)N2CC[C@@H](NC(=O)N3CCN(c4ccccc4)CC3)C2)cn1 [Example 89, N-{(3R)-1-[(6-methylpyridin-3-yl)carbonyl]pyrrolidin-3-yl}-4-phenylpiperazine-1-carboxamide] | 62% | – |
| Cc1ccc(C(=O)N2CC[C@@H](NC(=O)N3CCN(CCc4cccs4)CC3)C2)cn1 [Example 79, N-{(3R)-1-[(6-methylpyridin-3-yl)carbonyl]pyrrolidin-3-yl}-4-(2-thien-2-ylethyl)piperazine-1-carboxamide] | 48% | – |
| CCC(C)N1CCN(C(=O)N[C@@H]2CCN(C(=O)c3ccc(C)nc3)C2)CC1 (stereo partly drawn) [Example 76, 4-sec-butyl-N-{(3R)-1-[(6-methylpyridin-3-yl)carbonyl]pyrrolidin-3-yl}piperazine-1-carboxamide] | 58% | – |
| Cc1ccc(C(=O)N2CC[C@@H](NC(=O)N3CCN(c4ccccc4)CC3)C2)c(Cl)n1 [Example 48, N-{(3R)-1-[(2-chloro-6-methylpyridin-3-yl)carbonyl]pyrrolidin-3-yl}-4-phenylpiperazine-1-carboxamide] | – | inhibition at 0.001 µM: 78% |
| Cc1ccc(C(=O)N2CC[C@@H](NC(=O)NCCc3c[nH]c4ccccc34)C2)cn1 [Example 5, N-[2-(1H-indol-3-yl)ethyl]-N'-{(3R)-1-[(6-methyl-3-pyridinyl)carbonyl]-3-pyrrolidinyl}urea] | 59% | – |
| Cc1ccc(C(=O)N2CC[C@@H](NC(=O)NC3CCC3)C2)cn1 [Example 18, N-cyclobutyl-N'-{(3R)-1-[(6-methyl-3-pyridinyl)carbonyl]-3-pyrrolidinyl}urea] | 61% | – |
| Cc1ccc(C(=O)N2CC[C@@H](NC(=O)NC3CCCCCC3)C2)cn1 [Example 22, N-cycloheptyl-N'-{(3R)-1-[(6-methyl-3-pyridinyl)carbonyl]-3-pyrrolidinyl}urea] | 70% | – |
| Cc1ccc(C(=O)N2CC[C@@H](NC(=O)N3CCN(C(=O)C4CCCCC4)CC3)C2)cn1 [Example 81, 4-(cyclohexylcarbonyl)-N-{(3R)-1-[(6-methylpyridin-3-yl)carbonyl]pyrrolidin-3-yl}piperazine-1-carboxamide] | 55% | – |
| COc1ccc2[nH]cc(CCNC(=O)N[C@@H]3CCN(C(=O)c4ccc(C)nc4)C3)c2c1 [Example 29, N-[2-(5-methoxy-1H-indol-3-yl)ethyl]-N'-{(3R)-1-[(6-methyl-3-pyridinyl)carbonyl]-3-pyrrolidinyl}urea] | 92% | – |
| Cc1ccc(C(=O)N2CC[C@@H](NC(=O)N3CCC(C(N)=O)CC3)C2)cn1 [Example 86, N^1-{(3R)-1-[(6-methylpyridin-3-yl)carbonyl]pyrrolidin-3-yl}piperidine-1,4-dicarboxamide] | 74% | – |
| CCCC1CCN(C(=O)N[C@@H]2CCN(C(=O)c3ccc(C)nc3)C2)CC1 [Example 69, N-{(3R)-1-[(6-methylpyridin-3-yl)carbonyl]pyrrolidin-3-yl} -4-propylpiperidine-1-carboxamide] | 87% | – |
| CCN1CCN(C(=O)N[C@@H]2CCN(C(=O)c3ccc(C)nc3)C2)CC1 [Example 57, 4-ethyl-N-{(3R)-1-[(6-methylpyridin-3-yl)carbonyl]pyrrolidin-3-yl}piperazine-1-carboxamide] | 86% | – |
| COCCN(C(=O)N[C@@H]1CCN(C(=O)c2ccc(C)nc2Cl)C1)C(C)C [Example 35, N'-{(3R)-1-[(2-chloro-6-methylpyridin-3-yl)carbonyl]pyrrolidin-3-yl}-N-isopropyl-N-(2-methoxyethyl)urea] | 70% | – |
| Cc1ccc(C(=O)N2CC[C@@H](NC(=O)NC3CCCCC3)C2)cn1 [Example 19, N-cyclohexyl-N'-{(3R)-1-[(6-methyl-3-pyridinyl)carbonyl]-3-pyrrolidinyl}urea] | 63% | – |
| Cc1ccc(C(=O)N2CC[C@@H](NC(=O)N(Cc3ccccc3)Cc3ccccc3)C2)c(Cl)n1 [Example 43, N,N-dibenzyl-N'-{(3R)-1-[(2-chloro-6-methylpyridin-3-yl)carbonyl]pyrrolidin-3-yl}urea] | 73% | – |
| Cc1ccc(C(=O)N2CC[C@@H](NC(=O)N[C@H](CO)c3ccccc3)C2)cn1 [Example 25, N-[(1S)-2-hydroxy-1-phenylethyl]-N'-{(3R)-1-[(6-methyl-3-pyridinyl)carbonyl]-3-pyrrolidinyl}urea] | 80% | – |
